Several values for one entry are separate records, joined by “and”; a condition that tells them apart may be missing. Equal values may be shown once. Toxic doses and inconclusive results are not listed.
Tested on: P388 leukemia ip, CD2F1 mice, survival T/C
Assay: NCI In Vivo Anticancer Drug Screen. Data for tumor model P388 Leukemia (intraperitoneal) in CD2F1 (CDF1) mice
Conditions: endpoint: median survival time, higher = longer survival
In short: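 Mice carrying the transplanted tumor received test compound or vehicle. Survival was recorded in each group, and the value is the treated-group measurement divided by that of the vehicle-treated control group.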

[1] = dose: 60.0 mg/kg/injection, schedule: Q01DX005 (ip), vehicle: saline with Tween-80
[2] = dose: 120.0 mg/kg/injection, schedule: Q01DX005 (ip), vehicle: saline with Tween-80
[3] = dose: 240.0 mg/kg/injection, schedule: Q01DX005 (ip), vehicle: saline with Tween-80
[4] = dose: 60.0 mg/kg/injection, schedule: Q01DX005 (ip), vehicle: Klucel (hydroxypropylcellulose) (HPC)
[5] = dose: 120.0 mg/kg/injection, schedule: Q01DX005 (ip), vehicle: Klucel (hydroxypropylcellulose) (HPC)
[6] = dose: 50.0 mg/kg/injection, schedule: Q01DX005 (ip), vehicle: Klucel (hydroxypropylcellulose) (HPC)
[7] = dose: 100.0 mg/kg/injection, schedule: Q01DX005 (ip), vehicle: Klucel (hydroxypropylcellulose) (HPC)
[8] = dose: 200.0 mg/kg/injection, schedule: Q01DX005 (ip), vehicle: Klucel (hydroxypropylcellulose) (HPC)

## C[N+]1=CN(S(=O)(=O)C2C=CC=CC=C2)CC1(C)C
dose: 100.0 mg/kg/injection, schedule: Q04DX003 (ip), vehicle: saline
  T/C: 100 % of control
dose: 200.0 mg/kg/injection, schedule: Q04DX003 (ip), vehicle: saline
  T/C: 107 % of control
dose: 400.0 mg/kg/injection, schedule: Q04DX003 (ip), vehicle: saline
  T/C: 97 % of control

## O=C(NCCCl)OCC1=C(COC(=O)NCCCl)C(=O)c2ccccc2C1=O
dose: 12.5 mg/kg/injection, schedule: Q01DX005 (ip), vehicle: saline with Tween-80
  T/C: 100 % of control and 102 % of control
dose: 25.0 mg/kg/injection, schedule: Q01DX005 (ip), vehicle: saline with Tween-80
  T/C: 101 % of control and 106 % of control
dose: 50.0 mg/kg/injection, schedule: Q01DX005 (ip), vehicle: saline with Tween-80
  T/C: 110 % of control
dose: 100.0 mg/kg/injection, schedule: Q01DX005 (ip), vehicle: saline with Tween-80
  T/C: 113 % of control

## CC(C)(C)C(Br)C(=O)NN=C(c1ccccc1)c1ccccc1 (stereo not drawn)
dose: 50.0 mg/kg/injection, schedule: Q01DX009 (ip), vehicle: saline with Tween-80
  T/C: 106 % of control
dose: 100.0 mg/kg/injection, schedule: Q01DX009 (ip), vehicle: saline with Tween-80
  T/C: 105 % of control
dose: 200.0 mg/kg/injection, schedule: Q01DX009 (ip), vehicle: saline with Tween-80
  T/C: 99 % of control

## COC(=O)C1=[N+]([O-])c2ccccc2C1C(O)C(=O)OC (stereo not drawn)
[1]
  T/C: 98 % of control
[2]
  T/C: 93 % of control
[3]
  T/C: 98 % of control

## CC1=C2CCCCC2(O)OC1=O (stereo not drawn)
dose: 100.0 mg/kg/injection, schedule: Q01DX001 (ip), vehicle: saline
  T/C: 100 % of control
dose: 200.0 mg/kg/injection, schedule: Q01DX001 (ip), vehicle: saline
  T/C: 100 % of control
dose: 400.0 mg/kg/injection, schedule: Q01DX001 (ip), vehicle: saline
  T/C: 103 % of control

## CC(C)C(=O)CC1(O)C(=O)Nc2ccc([N+](=O)[O-])cc21 (stereo not drawn)
[1]
  T/C: 101 % of control
[2]
  T/C: 93 % of control
[3]
  T/C: 91 % of control

## CCOC(=O)NNc1cccc(Cl)c1
dose: 50.0 mg/kg/injection, schedule: Q01DX009 (ip), vehicle: saline
  T/C: 100 % of control
dose: 100.0 mg/kg/injection, schedule: Q01DX009 (ip), vehicle: saline
  T/C: 100 % of control

## CCN(CCC#N)C(=O)c1cccc([N+](=O)[O-])c1
[4]
  T/C: 102 % of control
[5]
  T/C: 94 % of control

## O=C1CSC(c2ccccc2F)N1c1nccs1 (stereo not drawn)
[6]
  T/C: 100 % of control
[7]
  T/C: 103 % of control
[8]
  T/C: 109 % of control

## CC1C(=O)CC2CCC1N2C(=O)O (stereo not drawn)
dose: 50.0 mg/kg/injection, schedule: Q01DX005 (ip), vehicle: saline
  T/C: 96 % of control
dose: 100.0 mg/kg/injection, schedule: Q01DX005 (ip), vehicle: saline
  T/C: 96 % of control
dose: 200.0 mg/kg/injection, schedule: Q01DX005 (ip), vehicle: saline
  T/C: 94 % of control

## C=CC(C)(CCC=C(C)C)ON(CC)CC (stereo not drawn)
dose: 100.0 mg/kg/injection, schedule: Q04DX002 (ip), vehicle: saline with Tween-80
  T/C: 108 % of control
dose: 200.0 mg/kg/injection, schedule: Q04DX002 (ip), vehicle: saline with Tween-80
  T/C: 113 % of control
dose: 400.0 mg/kg/injection, schedule: Q04DX002 (ip), vehicle: saline with Tween-80
  T/C: 92 % of control

## COc1ccc(-c2coc3cc(O)ccc3c2=O)c(O)c1OC
dose: 100.0 mg/kg/injection, schedule: Q04DX003 (ip), vehicle: Klucel (hydroxypropylcellulose) (HPC)
  T/C: 97 % of control
dose: 200.0 mg/kg/injection, schedule: Q04DX003 (ip), vehicle: Klucel (hydroxypropylcellulose) (HPC)
  T/C: 101 % of control
dose: 400.0 mg/kg/injection, schedule: Q04DX003 (ip), vehicle: Klucel (hydroxypropylcellulose) (HPC)
  T/C: 99 % of control

## COc1ccc(C)cc1NC(=O)SC(C)C
[4]
  T/C: 89 % of control
[5]
  T/C: 86 % of control
dose: 240.0 mg/kg/injection, schedule: Q01DX005 (ip), vehicle: Klucel (hydroxypropylcellulose) (HPC)
  T/C: 93 % of control

## CCOC(=O)COc1cc2c(cc1C(CC)c1ccccc1)OCO2 (stereo not drawn)
[6]
  T/C: 97 % of control
[7]
  T/C: 102 % of control
[8]
  T/C: 102 % of control

## NC(CCC(=O)NC(CSCNC(=O)Nc1ccc(Cl)cc1)C(=O)NCC(=O)O)C(=O)O (stereo not drawn)
dose: 60.0 mg/kg/injection, schedule: Q01DX005 (ip), vehicle: saline
  T/C: 97 % of control
dose: 120.0 mg/kg/injection, schedule: Q01DX005 (ip), vehicle: saline
  T/C: 97 % of control

From PubChem BioAssay AID330 (DTP/NCI, 2004)
